Measured values reported in patent US20070074295A1 (priority 2000, published 2007).

What was measured:
CIRL1 mRNA = assay: Semi-quantitative RT-PCR, prefrontal cortex, chronic PCP and antipsychotic treatment; format: in vivo, rat; details: chronic PCP treatment
Experimental: FIG. 14 illustrates the level of CIRL1 mRNA present in the prefrontal cortex of rat brain following chronic PCP and antipsychotic treatment (n=12 for all groups apart from veh-veh where n=11). […] and […] (SEQ ID NOS: 25-26) were the primer sequences used to amplify this product.
RT-PCR for specific isoforms of CIRL was then conducted in the prefrontal cortex.
1 ml of lysis buffer (Qiagen), including 1% β-mercaptoethanol, was added to approximately 50-100 mg of brain tissue. Tissue samples were homogenised using a ribolyser (Hybaid) with 3 bursts at 6.5 g lasting 20 seconds each. Samples were then spun at room temperature in a microfuge for 3 minutes. The supernatant was removed and re-spun for a further 3 minutes. The supernatant was decanted to a fresh tube to which an equal volume of 70% ethanol was added. The remaining RNA isolation procedure was carried out according to the manufacturer's protocol (Qiagen).
Synthesis of cDNA was carried out according to manufacturers protocols (Life Technologies). Briefly 3-5μg of total RNA was reverse transcribed using oligo dT priming. After cDNA synthesis, samples were aliquoted and stored at −70° C. […]
Alterations in expression levels were determined by semi-quantitative PCR. […] Samples were removed over 4 consecutive cycles, however, the first cycle to be removed sometimes varied depending on when logarithmic amplification was detected. […]

rats = assay: Effect of haloperidol and clozapine on PCP induced hypofunction: LCGU; format: in vivo, rat; details: i.p. PCP 2.58 mgkg^−1; minipump vehicle, clozapine 20 or haloperidol 1 mgkg^−1/day; day 29
Description: The effect of antipsychotics on the positive symptoms is less well studied regarding imaging studies.

Synapsins 1A&1B = assay: Rat Atlas Array, prefrontal cortex, chronic PCP model; format: in vivo
Experimental: Rats were injected with PCP (2.58 mg/kg) or vehicle i.p. for 5 days according to the YRING PCP model. […] On the same day, the rats began a course of i.p. injections every 2.5 days with either PCP (2.58 mg/kg) or vehicle.
21 days after minipump implantation, animals were killed by cervical dislocation and the prefrontal cortex dissected and stored at −70° C. RNA was then prepared according to the protocol below and the corresponding cDNA synthesis and hybridisation procedure were conducted using the rat Atlas Array kit according to the manufacturer's instructions (Clontech).
Results are expressed as mean relative optical densities ±SEM. Statistical significance was defined as P<0.05. N=¾ per group.
Frozen tissue already resides in the ribolyser tubes from the dissection procedure • 1) Add 1.1 ml Qiagen lysis buffer (containing β-mercaptoethanol, final volume =3%). • 2) Perform 3×20 sec homogenisations at 6.5 g in a ribolyser. • 3) Spin 3 min in microfuge. • 4) Decant to fresh tube and re-spin 3 min. • 5) Decide at this stage if you want to dilute supernatant with more lysis buffer. • 6) Add equal volume of phenol/CHCl3 pH4.7, vortex 30 sec and leave on ice for 10 min. • 7) Re-vortex and spin 4° C. 5-10 min at 1500 g. • 8) Decant supernatant and add 100 μl H2O. Add an equal volume of phenol/CHCl3 pH4.7, vortex, spin 5-10 min at 1500 g. • 9) Decant supernatant and add 100 μl H2O. […]

freely moving rats = assay: Induction and maintenance of PCP-induced hypofunction: LCGU by 14C-2-deoxyglucose autoradiography; format: in vivo, rat
Experimental: An initial treatment period of intraperitoneal (i.p.) injections once daily for 5 days was carried out, followed by a maintenance schedule of i.p. injections three times weekly (every 60 hours) for a further 21 days.
Intermittent exposure to PCP during the maintenance phase of the model was favoured due to the long half life of the drug within brain tissue (Misra, A. L. et al). […] As a comparison to the present model, the inventors also investigated the effect of previously published subchronic treatment with PCP (Jentsch, J. D. et al) using quantitative C-2-deoxyglucose autoradiography (Sokoloff, L.)
Local cerebral glucose utilisation (LCGU) was measured using an adaptation of the original method for freely moving rats (Crane, A. M. et al) 72 hours after the initial induction phase (day 8) and 72 hours after the induction phase followed by the maintenance phase (day 29). LCGU was measured 72 hours after the last exposure to PCP so the effects of PCP on LCGU would be independent of the acute effects of the drug. […] Thus, using a dose of 2.59 mgkg^−1 the inventors had established a novel treatment paradigm which mimics the findings of human imaging studies in schizophrenic patients.

Question: For c1ccc(C2(N3CCCCC3)CCCCC2)cc1 [PCP, phencyclidine], which “expression of CIRL1 (RT-PCR)” value (CIRL1 mRNA) is on record?
Answer: reduced

Question: And the “LCGU, Au layer I” value (rats)?
Answer: 138 ± 3 μmol/100 g/min

Question: What about the “LCGU, Au layers II, III&IV” value (rats) of the same molecule?
Answer: 174 ± 4 μmol/100 g/min

Question: What about the “LCGU, Au layers V & VI” value (rats) of the same molecule?
Answer: 120 ± 2 μmol/100 g/min

Question: And the “LCGU, AuD layer I” value (rats)?
Answer: 126 ± 5 μmol/100 g/min

Question: And the “LCGU, AuD layers II, III&IV” value (rats)?
Answer: 141 ± 6 μmol/100 g/min

Question: And the “LCGU, AuD layers V & VI” value (rats)?
Answer: 105 ± 2 μmol/100 g/min

Question: What about the “LCGU, CA1 molecular layer” value (rats) of the same molecule?
Answer: 93 ± 2 μmol/100 g/min

Question: And the “LCGU, CA1 pyramidal cell layer” value (rats)?
Answer: 63 ± 2 μmol/100 g/min

Question: What about the “LCGU, CA1 stratum oriens” value (rats) of the same molecule?
Answer: 59 ± 2 μmol/100 g/min

Question: And the “LCGU, CA1 stratum radiatum” value (rats)?
Answer: 67 ± 2 μmol/100 g/min

Question: And the “LCGU, CA3 molecular layer” value (rats)?
Answer: 90 ± 2 μmol/100 g/min

Question: And the “LCGU, CA3 pyramidal cell layer” value (rats)?
Answer: 69 ± 2 μmol/100 g/min

Question: What about the “LCGU, CA3 stratum oriens” value (rats) of the same molecule?
Answer: 60 ± 3 μmol/100 g/min

Question: What about the “LCGU, CA3 stratum radiatum” value (rats) of the same molecule?
Answer: 70 ± 3 μmol/100 g/min

Question: And the “LCGU, DLL” value (rats)?
Answer: 89 ± 4 μmol/100 g/min

Question: And the “LCGU, MD” value (rats)?
Answer: 133 ± 6 μmol/100 g/min

Question: And the “LCGU, PrL layer I” value (rats)?
Answer: 109 ± 4 μmol/100 g/min

Question: What about the “LCGU, PrL layers II & III” value (rats) of the same molecule?
Answer: 127 ± 5 μmol/100 g/min

Question: What about the “LCGU, PrL layers V & VI” value (rats) of the same molecule?
Answer: 97 ± 3 μmol/100 g/min

Question: And the “LCGU, Rt” value (rats)?
Answer: 79 ± 2 μmol/100 g/min

Question: What about the “LCGU, VLL” value (rats) of the same molecule?
Answer: 98 ± 6 μmol/100 g/min

Question: And the “LCGU, cochlear nucleus” value (rats)?
Answer: 92 ± 4 μmol/100 g/min

Question: What about the “LCGU, mO layer I” value (rats) of the same molecule?
Answer: 104 ± 5 μmol/100 g/min

Question: What about the “LCGU, mO layers II & III” value (rats) of the same molecule?
Answer: 121 ± 6 μmol/100 g/min

Question: What about the “LCGU, mO layers V & VI” value (rats) of the same molecule?
Answer: 113 ± 6 μmol/100 g/min

Question: And the “Synapsins 1A&1B expression (Atlas Array)” value (Synapsins 1A&1B)?
Answer: 23020 ± 1412 relative optical densities

Question: What about the “maintenance of metabolic hypofunction by second phase of the model” value (freely moving rats; 0.86 mgkg^−1 PCP) of the same molecule?
Answer: not, however, maintained

Question: And the “LCGU, Au layer I” value (freely moving rats; 0.86 mgkg^−1 PCP i.p., day 8)?
Answer: 127 ± 2 μmol/100 g/min

Question: And the “LCGU, Au layers II, III&IV” value (freely moving rats; 0.86 mgkg^−1 PCP i.p., day 8)?
Answer: 152 ± 3 μmol/100 g/min

Question: What about the “LCGU, Au layers V & VI” value (freely moving rats; 0.86 mgkg^−1 PCP i.p., day 8) of the same molecule?
Answer: 114 ± 4 μmol/100 g/min

Question: And the “LCGU, AuD layer I” value (freely moving rats; 0.86 mgkg^−1 PCP i.p., day 8)?
Answer: 126 ± 3 μmol/100 g/min

Question: And the “LCGU, AuD layers II, III&IV” value (freely moving rats; 0.86 mgkg^−1 PCP i.p., day 8)?
Answer: 151 ± 4 μmol/100 g/min

Question: What about the “LCGU, AuD layers V & VI” value (freely moving rats; 0.86 mgkg^−1 PCP i.p., day 8) of the same molecule?
Answer: 106 ± 2 μmol/100 g/min

Question: What about the “LCGU, DLL” value (freely moving rats; 0.86 mgkg^−1 PCP i.p., day 8) of the same molecule?
Answer: 91 ± 4 μmol/100 g/min

Question: What about the “LCGU, MD” value (freely moving rats; 0.86 mgkg^−1 PCP i.p., day 8) of the same molecule?
Answer: 112 ± 4 μmol/100 g/min

Question: What about the “LCGU, PrL layer I” value (freely moving rats; 0.86 mgkg^−1 PCP i.p., day 8) of the same molecule?
Answer: 132 ± 6 μmol/100 g/min

Question: And the “LCGU, PrL layers II & III” value (freely moving rats; 0.86 mgkg^−1 PCP i.p., day 8)?
Answer: 150 ± 7 μmol/100 g/min

Question: What about the “LCGU, PrL layers V & VI” value (freely moving rats; 0.86 mgkg^−1 PCP i.p., day 8) of the same molecule?
Answer: 115 ± 3 μmol/100 g/min

Question: And the “LCGU, Rt” value (freely moving rats; 0.86 mgkg^−1 PCP i.p., day 8)?
Answer: 106 ± 2 μmol/100 g/min

Question: What about the “LCGU, VLL” value (freely moving rats; 0.86 mgkg^−1 PCP i.p., day 8) of the same molecule?
Answer: 98 ± 5 μmol/100 g/min

Question: What about the “LCGU, cochlear nucleus” value (freely moving rats; 0.86 mgkg^−1 PCP i.p., day 8) of the same molecule?
Answer: 107 ± 3 μmol/100 g/min

Question: What about the “LCGU, mO layer” value (freely moving rats; 0.86 mgkg^−1 PCP i.p., day 8) of the same molecule?
Answer: 110 ± 2 μmol/100 g/min

Question: What about the “LCGU, mO layers II & III” value (freely moving rats; 0.86 mgkg^−1 PCP i.p., day 8) of the same molecule?
Answer: 127 ± 2 μmol/100 g/min

Question: And the “LCGU, mO layers V & VI” value (freely moving rats; 0.86 mgkg^−1 PCP i.p., day 8)?
Answer: 129 ± 5 μmol/100 g/min

Question: And the “LCGU, Au layer I” value (freely moving rats; 0.86 mgkg^−1 PCP i.p., day 29)?
Answer: 167 ± 14 μmol/100 g/min

Question: What about the “LCGU, Au layers II, III&IV” value (freely moving rats; 0.86 mgkg^−1 PCP i.p., day 29) of the same molecule?
Answer: 189 ± 12 μmol/100 g/min

Question: What about the “LCGU, Au layers V & VI” value (freely moving rats; 0.86 mgkg^−1 PCP i.p., day 29) of the same molecule?
Answer: 137 ± 10 μmol/100 g/min

Question: What about the “LCGU, AuD layer I” value (freely moving rats; 0.86 mgkg^−1 PCP i.p., day 29) of the same molecule?
Answer: 159 ± 11 μmol/100 g/min
